Experimental data published in PubChem BioAssay (NCI).
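Cultured in 96-well plates, cells were exposed to test compound for 48 hours across five concentrations. GI50 marks 50% less growth. At the TGI there is no net growth.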

Assays:
Assay in all cases: inhibition of tumour cell growth, NCI panel, 48 h
RPMI-8226 leukemia = test system: RPMI-8226 leukemia
UO-31 renal = test system: UO-31 renal
LOX IMVI melanoma = test system: LOX IMVI melanoma
SF-539 CNS = test system: SF-539 CNS
NCI-H460 lung = test system: NCI-H460 lung
K-562 leukemia = test system: K-562 leukemia
OVCAR-8 ovarian = test system: OVCAR-8 ovarian
A498 renal = test system: A498 renal
TK-10 renal = test system: TK-10 renal
HCT-116 colon = test system: HCT-116 colon

Row | SMILES | TGI (RPMI-8226 leukemia) | TGI (UO-31 renal) | TGI (LOX IMVI melanoma) | TGI (SF-539 CNS) | TGI (NCI-H460 lung) | TGI (K-562 leukemia) | TGI (OVCAR-8 ovarian) | TGI (A498 renal) | TGI (TK-10 renal) | TGI (HCT-116 colon) | GI50 (RPMI-8226 leukemia) | GI50 (LOX IMVI melanoma) | GI50 (SF-539 CNS) | GI50 (NCI-H460 lung) | GI50 (K-562 leukemia) | GI50 (OVCAR-8 ovarian) | GI50 (A498 renal) | GI50 (TK-10 renal) | GI50 (HCT-116 colon)
1 | O=C(O)c1ccccc1N=Nc1c(O)c(S(=O)(=O)O)cc2cc(S(=O)(=O)O)ccc12 | > 100 µM | > 100 µM | > 100 µM | > 100 µM | > 100 µM | > 100 µM | > 100 µM | > 100 µM | > 100 µM | > 100 µM | – | – | – | – | – | – | – | – | –
2 | N#Cc1nc(C#N)n(S(=O)(=O)c2ccccc2)c1NS(=O)(=O)c1ccccc1 | > 100 µM | 79.6 µM | > 100 µM | > 100 µM | > 100 µM | > 100 µM | > 100 µM | > 100 µM | > 100 µM | > 100 µM | – | – | – | – | – | – | – | – | –
3 | CCOC(=O)C1CCCCN1C(=O)Cc1c[nH]c2ccccc12 (stereo not given) | 64.7 µM | – | > 100 µM | > 100 µM | > 100 µM | > 100 µM | > 100 µM | > 100 µM | > 100 µM | > 100 µM | – | – | – | – | – | – | – | – | –
4 | COc1ccc(CNc2cc(=O)n(C)c(=O)[nH]2)cc1 | > 100 µM | > 100 µM | > 100 µM | > 100 µM | > 100 µM | > 100 µM | > 100 µM | > 100 µM | > 100 µM | > 100 µM | – | – | – | – | – | – | – | – | –
5 | c1ccc(CC2COC(c3cccs3)=N2)cc1 (stereo not given) | > 100 µM | > 100 µM | > 100 µM | > 100 µM | > 100 µM | > 100 µM | > 100 µM | – | > 100 µM | > 100 µM | – | – | – | – | – | – | – | – | –
6 | COc1ccc(Nc2ccc([N+](=O)[O-])cc2[N+](=O)[O-])cc1CN(CCCl)CCCl | 9.75 µM | – | 3.51 µM | 4.85 µM | 6.16 µM | 18.9 µM | > 100 µM | 4.94 µM | 95.3 µM | 3.75 µM | 1.86 µM | 1.37 µM | 1.85 µM | 1.82 µM | 2.47 µM | 3.02 µM | 1.88 µM | 3.76 µM | 1.16 µM
7 | CCCCCCCCCCCC[N+](CCCCCCCCCCCC)=C1SCCS1 | 4.4 µM | 26.2 µM | 4.52 µM | 25.5 µM | 20.5 µM | – | 8.33 µM | 29.4 µM | 28.8 µM | 10.9 µM | – | – | – | – | – | – | – | – | –
8 | COc1cc(Oc2nc3ccc(C(F)(F)F)cc3nc2-c2ccccc2)cc(OC)c1OC | > 100 µM | > 100 µM | > 100 µM | 60.8 µM | > 100 µM | > 100 µM | > 100 µM | > 100 µM | 69.2 µM | 31.4 µM | – | – | – | – | – | – | – | – | –
9 | C[N+](C)(C)c1ncnc2c1ncn2C1CCCO1 (stereo not given) | > 100 µM | > 100 µM | – | > 100 µM | > 100 µM | > 100 µM | > 100 µM | > 100 µM | > 100 µM | > 100 µM | – | – | – | – | – | – | – | – | –
10 | CO/N=C1/c2sccc2[C@H](NC(=O)C(Cc2ccccc2)NC(=O)OC(C)(C)C)[C@@H]1O (stereo not given in full) | – | > 100 µM | > 100 µM | > 100 µM | > 100 µM | > 100 µM | > 100 µM | > 100 µM | > 100 µM | > 100 µM | – | – | – | – | – | – | – | – | –
11 | CCOC(=O)c1c[nH]c2ccc3c(c2c1=O)S(=O)(=O)CC3 (tested in a mixture with another compound) | > 100 µM | > 100 µM | > 100 µM | > 100 µM | > 100 µM | > 100 µM | > 100 µM | > 100 µM | – | > 100 µM | – | – | – | – | – | – | – | – | –
12 | CC1(C)CC(=O)c2c(nc3c4c([nH]c(-c5ccc(Br)cc5)c24)CC(C)(C)C3)C1 | – | > 100 µM | > 100 µM | > 100 µM | > 100 µM | > 100 µM | > 100 µM | 86.7 µM | > 100 µM | > 100 µM | – | – | – | – | – | – | – | – | –
13 | Cc1cnc2c(c1C)C(=O)c1ccccc1C2=O | > 100 µM | > 100 µM | – | > 100 µM | 53.8 µM | > 100 µM | > 100 µM | > 100 µM | > 100 µM | > 100 µM | – | – | – | – | – | – | – | – | –
14 | O=C1NC2CCCCCC2C12CCCCC2 (stereo not given) | – | > 100 µM | > 100 µM | > 100 µM | > 100 µM | > 100 µM | – | > 100 µM | > 100 µM | > 100 µM | – | – | – | – | – | – | – | – | –
15 | CCN(CC)c1nnc(CCCCCCCCc2nnc(N(CC)CC)o2)o1 | – | > 100 µM | > 100 µM | > 100 µM | > 100 µM | > 100 µM | > 100 µM | > 100 µM | > 100 µM | > 100 µM | – | – | – | – | – | – | – | – | –
16 | C=CCOc1ccc(C2C(C(=O)OC)C(=O)CC(O)(c3ccccc3)C2C(=O)OC)cc1OC (stereo not given) | – | 61.8 µM | > 100 µM | – | > 100 µM | > 100 µM | 50.4 µM | 76.4 µM | > 100 µM | 49.8 µM | – | – | – | – | – | – | – | – | –
17 | CC1CC(C#N)=C2NCCN2C1=O (stereo not given) | > 100 µM | > 100 µM | > 100 µM | > 100 µM | > 100 µM | > 100 µM | > 100 µM | – | > 100 µM | – | – | – | – | – | – | – | – | – | –
18 | COc1cc(Nc2nc3cc(C(F)(F)F)ccc3n3cccc23)cc(OC)c1OC | > 100 µM | > 100 µM | – | > 100 µM | – | > 100 µM | > 100 µM | > 100 µM | > 100 µM | > 100 µM | – | – | – | – | – | – | – | – | –
19 | CN1CCN(P2(=S)Oc3ccc4ccccc4c3-c3c(ccc4ccccc34)O2)CC1 | 43.1 µM | 48 µM | 39.6 µM | 42.6 µM | 42.1 µM | > 76.9 µM | > 100 µM | > 100 µM | – | > 100 µM | – | – | – | – | – | – | – | – | –
20 | Cn1c(=O)n2n(c1=O)C(C)(C13CC4CC(CC(C4)C1)C3)C13CC4CC(CC1C4)CC23 (stereo not given) | > 100 µM | > 100 µM | – | > 100 µM | > 100 µM | > 100 µM | > 100 µM | > 100 µM | > 100 µM | – | – | – | – | – | – | – | – | – | –
21 | CC(C)/C(Cl)=N/OC(=O)Nc1ccc(Cl)c(Cl)c1 | 6.92 µM | 28.6 µM | 3.16 µM | 28.9 µM | 34 µM | – | 32.9 µM | 33.5 µM | 10.9 µM | 4.65 µM | – | – | – | – | – | – | – | – | –
22 | COC(=O)C(=O)Cc1nc2ccccc2o1 | – | > 100 µM | > 100 µM | > 100 µM | > 100 µM | > 100 µM | – | > 100 µM | > 100 µM | > 100 µM | – | – | – | – | – | – | – | – | –
